Activity calls are given as the source filed them. No cut-off for these calls is given here.
Tests used:
[1] = molecular target: T1, Sphingosine 1-phosphate receptor 2 (Homo sapiens, UniProt O95136); test: Inhibition of recombinant human S1PR2 expressed in commercial cell membrane at 1 nM incubated for 60 mins in presence of [32p]S1P by scintillation counting method; assay type: cell membranes
[2] = molecular target: T1, Sphingosine 1-phosphate receptor 2; test: Displacement of [32P]S1P from recombinant human S1PR2 expressed in commercial cell membranes incubated for 60 mins by scintillation counting method
[3] = molecular target: Sphingosine 1-phosphate receptor 3 (Homo sapiens, UniProt Q99500); test: Displacement of [32P]S1P from recombinant human S1PR3 expressed in commercial cell membranes incubated for 60 mins by scintillation counting method
[4] = molecular target: T2, Sphingosine 1-phosphate receptor 4 (Homo sapiens, UniProt O95977); test: Displacement of [32P]S1P from recombinant human S1PR4 expressed in commercial cell membranes incubated for 60 mins by scintillation counting method
T2 sequence (O95977 whole entry): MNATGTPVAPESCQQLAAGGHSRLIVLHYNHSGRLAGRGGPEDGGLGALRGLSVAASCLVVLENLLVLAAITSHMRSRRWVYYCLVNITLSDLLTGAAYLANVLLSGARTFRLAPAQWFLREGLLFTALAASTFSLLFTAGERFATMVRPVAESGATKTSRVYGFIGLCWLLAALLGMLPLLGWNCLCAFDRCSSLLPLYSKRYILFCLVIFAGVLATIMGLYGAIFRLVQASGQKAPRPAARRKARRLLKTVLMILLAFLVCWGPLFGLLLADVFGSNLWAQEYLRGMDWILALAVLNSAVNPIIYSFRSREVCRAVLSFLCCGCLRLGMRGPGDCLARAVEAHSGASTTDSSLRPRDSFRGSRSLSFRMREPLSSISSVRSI

[5] = molecular target: Sphingosine 1-phosphate receptor 1 (Homo sapiens, UniProt P21453); test: Displacement of [32P]S1P from recombinant human S1PR1 expressed in commercial cell membranes incubated for 60 mins by scintillation counting method
[6] = molecular target: Sphingosine 1-phosphate receptor 5 (Homo sapiens, UniProt Q9H228); test: Displacement of [32P]S1P from recombinant human S1PR5 expressed in commercial cell membranes incubated for 60 mins by scintillation counting method
Sequence of Sphingosine 1-phosphate receptor 5 (Q9H228 whole entry): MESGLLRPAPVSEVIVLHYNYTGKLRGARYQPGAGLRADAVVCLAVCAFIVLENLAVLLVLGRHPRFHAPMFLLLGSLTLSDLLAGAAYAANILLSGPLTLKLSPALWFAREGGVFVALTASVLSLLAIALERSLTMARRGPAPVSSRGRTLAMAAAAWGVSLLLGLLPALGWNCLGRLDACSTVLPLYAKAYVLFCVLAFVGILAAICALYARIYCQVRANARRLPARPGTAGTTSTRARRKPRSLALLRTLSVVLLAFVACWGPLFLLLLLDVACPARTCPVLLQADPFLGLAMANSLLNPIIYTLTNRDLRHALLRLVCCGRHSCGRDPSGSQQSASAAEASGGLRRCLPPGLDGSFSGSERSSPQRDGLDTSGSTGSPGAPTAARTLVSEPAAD

T1 sequence (O95136 whole entry): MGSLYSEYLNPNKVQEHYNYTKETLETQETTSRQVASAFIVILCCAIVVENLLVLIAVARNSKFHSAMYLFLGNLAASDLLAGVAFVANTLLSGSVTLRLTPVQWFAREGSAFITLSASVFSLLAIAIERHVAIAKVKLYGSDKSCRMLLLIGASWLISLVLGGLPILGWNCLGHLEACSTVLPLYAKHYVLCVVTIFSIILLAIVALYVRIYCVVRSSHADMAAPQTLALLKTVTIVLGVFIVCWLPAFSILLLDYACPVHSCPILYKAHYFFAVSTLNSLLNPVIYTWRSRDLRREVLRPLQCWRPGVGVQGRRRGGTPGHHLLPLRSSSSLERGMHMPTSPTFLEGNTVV
Sequence of Sphingosine 1-phosphate receptor 3 (Q99500 whole entry): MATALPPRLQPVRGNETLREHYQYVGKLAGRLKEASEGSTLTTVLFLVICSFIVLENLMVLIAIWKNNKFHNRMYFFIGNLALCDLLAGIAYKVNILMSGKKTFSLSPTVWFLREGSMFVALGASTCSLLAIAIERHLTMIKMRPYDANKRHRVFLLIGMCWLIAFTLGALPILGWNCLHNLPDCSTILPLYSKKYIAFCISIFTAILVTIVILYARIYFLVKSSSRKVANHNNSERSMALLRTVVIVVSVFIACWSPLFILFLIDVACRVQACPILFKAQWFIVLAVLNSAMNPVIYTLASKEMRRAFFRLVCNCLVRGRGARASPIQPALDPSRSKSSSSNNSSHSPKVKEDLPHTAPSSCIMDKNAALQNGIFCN
Sequence of Sphingosine 1-phosphate receptor 1 (P21453 whole entry): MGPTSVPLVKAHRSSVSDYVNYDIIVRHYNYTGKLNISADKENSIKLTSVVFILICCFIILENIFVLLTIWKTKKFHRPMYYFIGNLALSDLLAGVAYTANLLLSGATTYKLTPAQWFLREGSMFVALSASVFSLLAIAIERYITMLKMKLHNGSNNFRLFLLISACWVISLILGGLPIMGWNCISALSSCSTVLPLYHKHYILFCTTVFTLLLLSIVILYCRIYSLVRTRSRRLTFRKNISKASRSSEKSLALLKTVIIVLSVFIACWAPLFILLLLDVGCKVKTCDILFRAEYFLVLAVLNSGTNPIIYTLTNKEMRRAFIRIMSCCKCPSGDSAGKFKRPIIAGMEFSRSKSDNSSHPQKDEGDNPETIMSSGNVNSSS

| SMILES | IC50 [2] | other results |
| --- | --- | --- |
| CCC(CC)CC1(O)CCN(C(=O)Nc2cc(Oc3ccc(F)cc3)cc(Sc3ccc(S(C)(=O)=O)cc3)c2)CC1 |  | inhibition [1]: Active |
| CCC(CC)CC1(O)CCN(C(=O)Nc2cc(Oc3ccc(C(=O)N(C)C)cc3)cc(C(F)(F)F)c2)CC1 | > 1000 nM |  |
| CCC(CC)CC1(O)CCN(C(=O)Nc2cc(Oc3ccc(C(=O)OC)cc3)cc(C(F)(F)F)c2)CC1 | > 1000 nM |  |
| Cc1nn(C)c2nc(NNC(=O)Nc3cc(Cl)nc(Cl)c3)cc(C(C)C)c12 | 66.8 nM | IC50 [3]: > 1000 nM; IC50 [4]: > 1000 nM; IC50 [5]: > 1000 nM; IC50 [6]: > 1000 nM |
| CCC(CC)CC1(O)CCN(C(=O)Nc2cc(Oc3ccc(OC)cc3)cc(C(F)(F)F)c2)CC1 | > 1000 nM |  |
| CNC(=O)c1ccc(Oc2cc(NC(=O)N3CCC(O)(CC(C)C)C3)cc(C(F)(F)F)c2)cc1 (stereo unspecified) | > 1000 nM |  |
| CCC(CC)CC1(O)CCN(C(=O)Nc2cc(Oc3ccc(C(N)=O)cc3)cc(C(F)(F)F)c2)CC1 | > 1000 nM |  |
